Common to all, as to type: cell-based
Test [1] deals with T1, GLP-1R (Homo sapiens, UniProt P43220). Description: HitHunter cAMP assay (GLP-1R). Particulars: cAMP; for Emax: read-out: (Emax) GLP-1R. The method, boiled down:
(§1)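 Duplicate 22-point, 2-fold agonist titrations applied to receptor-expressing suspension cells in IBMX-containing HBSS; 30 min RT stimulation. Read: luminescent cAMP immunocompetition after O/N dark incubation.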
A general note: Cyclic AMP is a second messenger, typically raised through Gs and lowered through Gi signalling.

A further test concerns the target T2, GIP-R (Homo sapiens, UniProt P48546).
T2 sequence (P48546 22-466): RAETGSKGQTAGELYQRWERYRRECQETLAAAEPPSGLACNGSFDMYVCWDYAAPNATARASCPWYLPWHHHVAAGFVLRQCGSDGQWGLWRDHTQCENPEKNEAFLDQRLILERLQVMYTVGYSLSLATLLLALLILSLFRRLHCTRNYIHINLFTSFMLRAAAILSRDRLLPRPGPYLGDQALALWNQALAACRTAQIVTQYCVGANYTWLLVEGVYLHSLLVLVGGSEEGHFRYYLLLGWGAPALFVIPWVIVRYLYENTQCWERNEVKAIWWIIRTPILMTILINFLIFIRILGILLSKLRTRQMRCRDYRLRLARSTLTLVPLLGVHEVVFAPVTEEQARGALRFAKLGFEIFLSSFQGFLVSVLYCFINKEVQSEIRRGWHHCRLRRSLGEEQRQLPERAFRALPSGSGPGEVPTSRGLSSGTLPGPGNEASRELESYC
Put plainly: HitHunter cAMP assay (GIP-R). Particulars: cAMP; for Emax: read-out: (Emax) GIP-R. The method, boiled down: as §1

Test [2] has as its target T1, GLP-1R. Put plainly: PathHunter β-arrestin assay. The method in brief: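 Following a 90 min agonist exposure at 37 °C in 0.2% BSA medium, β-arrestin coupling was detected by chemiluminescence after 3 h at room temperature.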
[3] abbreviates: Table 3, read-out: EC50 GLP-1R/nM.
Setting [4] is: Table 3A, read-out: EC50 GLP-1R/nM.
The mark [5] stands for this setting: Table 3, read-out: EC50 GIP-R/nM.
Setting [6] is: Table 3A, read-out: EC50 GIP-R/nM.
The mark [7] stands for this setting: PathHunter β-arrestin assay, read-out: β-arrestin activity EC50.

These results are taken from US20260176320A1, “MODULATORS OF G-PROTEIN COUPLED RECEPTORS” (priority 2018, published 2026).

By Emax is commonly meant the greatest response seen or fitted, relative to the assay's reference.

Where two headings read alike, the source gives them in different places.

T1 sequence (P43220 24-463): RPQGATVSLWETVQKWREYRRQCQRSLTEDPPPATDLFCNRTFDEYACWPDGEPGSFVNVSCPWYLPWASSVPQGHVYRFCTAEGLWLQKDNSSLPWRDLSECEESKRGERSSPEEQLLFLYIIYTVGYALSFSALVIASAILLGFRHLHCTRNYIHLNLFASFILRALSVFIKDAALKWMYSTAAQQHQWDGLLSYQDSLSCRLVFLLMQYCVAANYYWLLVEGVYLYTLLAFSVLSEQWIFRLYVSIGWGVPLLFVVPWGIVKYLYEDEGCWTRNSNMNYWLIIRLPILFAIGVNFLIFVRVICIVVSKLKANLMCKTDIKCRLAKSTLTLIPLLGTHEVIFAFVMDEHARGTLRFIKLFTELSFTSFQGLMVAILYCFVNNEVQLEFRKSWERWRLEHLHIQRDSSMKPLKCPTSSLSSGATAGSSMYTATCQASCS

As to `CC[C@H](C)[C@H](NC(=O)[C@H](CO)NC(=O)[C@H](Cc1ccc(O)cc1)NC(=O)[C@H](CC(=O)O)NC(=O)[C@H](CO)NC(=O)[C@@H](NC(=O)[C@H](Cc1ccccc1)NC(=O)[C@@H](NC(=O)CNC(=O)[C@H](CCC(=O)O)NC(=O)CCCNC(=O)CN1C(=O)CSC1=O)[C@@H](C)O)[C@@H](C)O)C(=O)N[C@@H](Cc1ccc(O)cc1)C(=O)N[C@@H](CC(C)C)C(=O)N[C@@H](CC(=O)O)C(=O)N[C@@H](CCCCN)C(=O)N[C@@H](CCC(N)=O)C(=O)N[C@@H](C)C(=O)N[C@@H](C)C(=O)NC(C)(C)C(=O)N[C@@H](CCC(=O)O)C(=O)N[C@@H](Cc1ccccc1)C(=O)N[C@H](C(=O)N[C@@H](CC(N)=O)C(=O)N[C@@H](Cc1c[nH]c2ccccc12)C(=O)N[C@@H](CC(C)C)C(=O)N[C@@H](CC(C)C)C(=O)N[C@@H](C)C(=O)NCC(=O)NCC(=O)N1CCC[C@H]1C(=O)N[C@@H](CO)C(=O)N[C@@H](CO)C(=O)NCC(=O)N[C@@H](C)C(=O)N1CCC[C@H]1C(=O)N1CCC[C@H]1C(=O)N1CCC[C@H]1C(=O)N[C@@H](CO)C(=O)N[C@@H](CCCCN)C(N)=O)C(C)C` [Compound 178], the Emax came out at 97% at GLP-1R [1] (Table 3), 97% at GLP-1R [1] (Table 3A), 38% at GIP-R (Table 3) and 38% at GIP-R (Table 3A). Moreover, the EC50 at GLP-1R [1] (setting [3]) is 1 to 10 nM; on GLP-1R [1] (setting [4]), 1 to 10 nM; on GIP-R (setting [5]), 100 to 1000 nM; at GIP-R (setting [6]) it was 100 to 1000 nM; at GLP-1R [2] (setting [7]), above 1000 nM.

On to `CCCCCCCCCCCCCCCC(=O)N[C@@H](CCC(=O)NCCCC[C@H](NC(=O)[C@H](CO)NC(=O)[C@@H]1CCCN1C(=O)[C@@H]1CCCN1C(=O)[C@@H]1CCCN1C(=O)[C@H](C)NC(=O)CNC(=O)[C@H](CO)NC(=O)[C@H](CO)NC(=O)[C@@H]1CCCN1C(=O)CNC(=O)CNC(=O)[C@H](C)NC(=O)[C@H](CC(C)C)NC(=O)[C@H](CC(C)C)NC(=O)[C@H](Cc1c[nH]c2ccccc12)NC(=O)[C@H](CC(N)=O)NC(=O)[C@@H](NC(=O)[C@H](Cc1ccccc1)NC(=O)[C@H](CCC(=O)O)NC(=O)C(C)(C)NC(=O)[C@H](C)NC(=O)[C@H](C)NC(=O)[C@H](CCC(N)=O)NC(=O)[C@H](CCCCN)NC(=O)[C@H](CC(=O)O)NC(=O)[C@H](CC(C)C)NC(=O)[C@H](Cc1ccc(O)cc1)NC(=O)[C@@H](NC(=O)[C@H](CO)NC(=O)[C@H](Cc1ccc(O)cc1)NC(=O)[C@H](CC(=O)O)NC(=O)[C@H](CO)NC(=O)[C@@H](NC(=O)[C@H](Cc1ccccc1)NC(=O)[C@@H](NC(=O)CNC(=O)[C@H](CCC(=O)O)NC(=O)[C@@H](C)NC(=O)CN1CCCCC1=O)[C@@H](C)O)[C@@H](C)O)[C@@H](C)CC)C(C)C)C(N)=O)C(=O)O` [Compound 213], for which the Emax at GLP-1R [1] (Table 3A) was 90%; on GIP-R (Table 3A) it was 59%. Also, the EC50 at GLP-1R [1] (setting [4]) was below 0.1 nM; at GIP-R (setting [6]), 0.1 to 1 nM; at GLP-1R [2] (setting [7]) it was 10 to 1000 nM.

Take `CCCCCCCCCCCCCCCC(=O)N[C@@H](CCC(=O)NCCCC[C@H](NC(=O)[C@H](CO)NC(=O)[C@@H]1CCCN1C(=O)[C@@H]1CCCN1C(=O)[C@@H]1CCCN1C(=O)[C@H](C)NC(=O)CNC(=O)[C@H](CO)NC(=O)[C@H](CO)NC(=O)[C@@H]1CCCN1C(=O)CNC(=O)CNC(=O)[C@H](C)NC(=O)[C@H](CC(C)C)NC(=O)[C@H](CC(C)C)NC(=O)[C@H](Cc1c[nH]c2ccccc12)NC(=O)[C@H](CC(N)=O)NC(=O)[C@@H](NC(=O)[C@H](Cc1ccccc1)NC(=O)[C@H](CCC(=O)O)NC(=O)C(C)(C)NC(=O)[C@H](C)NC(=O)[C@H](C)NC(=O)[C@H](CCC(N)=O)NC(=O)[C@H](CCCCN)NC(=O)[C@H](CC(=O)O)NC(=O)[C@H](CC(C)C)NC(=O)[C@H](Cc1ccc(O)cc1)NC(=O)[C@@H](NC(=O)[C@H](CO)NC(=O)[C@H](Cc1ccc(O)cc1)NC(=O)[C@H](CC(=O)O)NC(=O)[C@H](CO)NC(=O)[C@@H](NC(=O)[C@H](Cc1ccccc1)NC(=O)[C@@H](NC(=O)CNC(=O)[C@H](CCC(=O)O)NC(=O)CSCC(=O)NCCN1CCOC1=O)[C@@H](C)O)[C@@H](C)O)[C@@H](C)CC)C(C)C)C(N)=O)C(=O)O` [Compound 39]: the maximal effect (Emax) at GLP-1R [1] (Table 3) is 102 to 104%; at GLP-1R [1] (Table 3A), 102 to 104%; on GIP-R (Table 3) it was 40 to 60%; on GIP-R (Table 3A), 40 to 60%. Further, the EC50 on GLP-1R [1] (setting [3]) is below 1 nM; at GLP-1R [1] (setting [4]), below 1 nM; at GIP-R (setting [5]), 0.1 to 10 nM; at GIP-R (setting [6]), 0.1 to 10 nM; at GLP-1R [2] (setting [7]), above 1000 nM.

In the case of `CCCCCCCCCCCCCCCC(=O)N[C@@H](CCC(=O)NCCCC[C@H](NC(=O)[C@H](CO)NC(=O)[C@@H]1CCCN1C(=O)[C@@H]1CCCN1C(=O)[C@@H]1CCCN1C(=O)[C@H](C)NC(=O)CNC(=O)[C@H](CO)NC(=O)[C@H](CO)NC(=O)[C@@H]1CCCN1C(=O)CNC(=O)CNC(=O)[C@H](C)NC(=O)[C@H](CC(C)C)NC(=O)[C@H](CC(C)C)NC(=O)[C@H](Cc1c[nH]c2ccccc12)NC(=O)[C@H](CC(N)=O)NC(=O)[C@@H](NC(=O)[C@H](Cc1ccccc1)NC(=O)[C@H](CCC(=O)O)NC(=O)C(C)(C)NC(=O)[C@H](C)NC(=O)[C@H](C)NC(=O)[C@H](CCC(N)=O)NC(=O)[C@H](CCCCN)NC(=O)[C@H](CC(=O)O)NC(=O)[C@H](CC(C)C)NC(=O)[C@H](Cc1ccc(O)cc1)NC(=O)[C@@H](NC(=O)[C@H](CO)NC(=O)[C@H](Cc1ccc(O)cc1)NC(=O)[C@H](CC(=O)O)NC(=O)[C@H](CO)NC(=O)[C@@H](NC(=O)[C@H](Cc1ccccc1)NC(=O)[C@@H](NC(=O)CNC(=O)[C@H](CCC(=O)O)NC(=O)CSCC(=O)NCCN1C[C@@H](OC)CC1=O)[C@@H](C)O)[C@@H](C)O)[C@@H](C)CC)C(C)C)C(N)=O)C(=O)O` [Compound 22], the EC50 at GLP-1R [1] (EC50 GLP-1R/nM, Table 3) is 0.1 to 1 nM; on GLP-1R [1] (EC50 GLP-1R/nM, Table 3A), 0.1 to 1 nM; at GIP-R (EC50 GIP-R/nM, Table 3) it was 0.1 to 1 nM; at GIP-R (EC50 GIP-R/nM, Table 3A), 0.1 to 1 nM; on GLP-1R [2] it was above 1000 nM. The Emax on GLP-1R [1] (Table 3) is 90%; at GLP-1R [1] (Table 3A) it was 90%; at GIP-R (Table 3) it was 46%; on GIP-R (Table 3A), 46%.

`CCCCCCCCCCCCCCCC(=O)N[C@@H](CCC(=O)NCCCC[C@H](NC(=O)[C@H](CO)NC(=O)[C@@H]1CCCN1C(=O)[C@@H]1CCCN1C(=O)[C@@H]1CCCN1C(=O)[C@H](C)NC(=O)CNC(=O)[C@H](CO)NC(=O)[C@H](CO)NC(=O)[C@@H]1CCCN1C(=O)CNC(=O)CNC(=O)[C@H](C)NC(=O)[C@H](CC(C)C)NC(=O)[C@H](CC(C)C)NC(=O)[C@H](Cc1c[nH]c2ccccc12)NC(=O)[C@H](CC(N)=O)NC(=O)[C@@H](NC(=O)[C@H](Cc1ccccc1)NC(=O)[C@H](CCC(=O)O)NC(=O)C(C)(C)NC(=O)[C@H](C)NC(=O)[C@H](C)NC(=O)[C@H](CCC(N)=O)NC(=O)[C@H](CCCCN)NC(=O)[C@H](CC(=O)O)NC(=O)[C@H](CC(C)C)NC(=O)[C@H](Cc1ccc(O)cc1)NC(=O)[C@@H](NC(=O)[C@H](CO)NC(=O)[C@H](Cc1ccc(O)cc1)NC(=O)[C@H](CC(=O)O)NC(=O)[C@H](CO)NC(=O)[C@@H](NC(=O)[C@H](Cc1ccccc1)NC(=O)[C@@H](NC(=O)CNC(=O)[C@H](CCC(=O)O)NC(=O)CSCC(=O)NCCn1ccc(=O)[nH]c1=O)[C@@H](C)O)[C@@H](C)O)[C@@H](C)CC)C(C)C)C(N)=O)C(=O)O` [Compound 239]: the EC50 at GLP-1R [1] (EC50 GLP-1R/nM, Table 3A) is 0.1 to 1 nM; on GIP-R (EC50 GIP-R/nM, Table 3A), 10 to 100 nM; at GLP-1R [2], above 1000 nM. In addition, the Emax is 100% at GLP-1R [1] (Table 3A) and 46% at GIP-R (Table 3A).

With `CCCCCCCCCCCCCCCC(=O)N[C@@H](CCC(=O)NCCCC[C@H](NC(=O)[C@H](CO)NC(=O)[C@@H]1CCCN1C(=O)[C@@H]1CCCN1C(=O)[C@@H]1CCCN1C(=O)[C@H](C)NC(=O)CNC(=O)[C@H](CO)NC(=O)[C@H](CO)NC(=O)[C@@H]1CCCN1C(=O)CNC(=O)CNC(=O)[C@H](C)NC(=O)[C@H](CC(C)C)NC(=O)[C@H](CC(C)C)NC(=O)[C@H](Cc1c[nH]c2ccccc12)NC(=O)[C@H](CC(N)=O)NC(=O)[C@@H](NC(=O)[C@H](Cc1ccccc1)NC(=O)[C@H](CCC(=O)O)NC(=O)C(C)(C)NC(=O)[C@H](C)NC(=O)[C@H](C)NC(=O)[C@H](CCC(N)=O)NC(=O)[C@H](CCCCN)NC(=O)[C@H](CC(=O)O)NC(=O)[C@H](CC(C)C)NC(=O)[C@H](Cc1ccc(O)cc1)NC(=O)[C@@H](NC(=O)[C@H](CO)NC(=O)[C@H](Cc1ccc(O)cc1)NC(=O)[C@H](CC(=O)O)NC(=O)[C@H](CO)NC(=O)[C@@H](NC(=O)[C@H](Cc1ccccc1)NC(=O)[C@@H](NC(=O)CNC(=O)[C@H](CCC(=O)O)NC(=O)CSCC(=O)NCCN1CCS(=O)(=O)CC1=O)[C@@H](C)O)[C@@H](C)O)[C@@H](C)CC)C(C)C)C(N)=O)C(=O)O` [Compound 29], the EC50 at GLP-1R [1] (EC50 GLP-1R/nM, Table 3) was 1 to 10 nM; at GLP-1R [1] (EC50 GLP-1R/nM, Table 3A) it was 1 to 10 nM; at GIP-R (EC50 GIP-R/nM, Table 3), 1 to 10 nM; at GIP-R (EC50 GIP-R/nM, Table 3A), 100 to 1000 nM; on GLP-1R [2], above 1000 nM. Also, the Emax on GLP-1R [1] (Table 3) was 98%; on GLP-1R [1] (Table 3A), 98%; at GIP-R (Table 3), 11%; on GIP-R (Table 3A) it was 11%.
